Experimental data from patent publication US7273964B1, “Non-human transgenic animals for the study of neurodegenerative syndromes” (Scuola Internazionale Superiore Di Studi Avanzati, priority 1999, dated 2007).
Entries after “also recorded” stand apart in the source; their conditions may differ.

Assays:
[1] = system: gastrocnemius muscle of anti-NGF mice; assay: Reversibility of the muscular dystrophy in anti-NGF mice by NGF local administration; assay type: in vivo, mouse; settings: 45 day old anti-NGF mice, 7, 15 and 30 days after injection
Method: All the experiments were carried out on 45 day old mice, when the serum level of the anti-NGF antibody is still not at the highest level (observed 60 days after the birth). The NGF was administered locally by different methods: (a) by intramuscular injection of NGF, (b) by intramuscular injection of a viral recombinant vector (adenovirus) encoding for NGF cDNA or (c) by the implant of NGF secreting fibroblasts. All the administration routes included the injection or implant in the gastrocnemius muscle, one of the skeletal muscles affected by muscular dystrophy. The injections and implants were carried out on the right leg, while the gastrocnemius muscle of the left leg was used as control. A) NGF was injected as pellet, consisting of diazocellulose mixed NGF in borate buffer at pH 8.0 for 72 hours and following neutralisation by glycine saturated solution (Hendry, 1982). This method allows the exact localisation and slow release of this neurotrophin. Different NGF concentrations were used, comprised in the range from […] and 2 mg for each animal. […]
To verify the effect of the NGF administration the animals were sacrificed 7, 15 and 30 days after the injection. The injected and contralateral muscles were collected and analysed by histological and immunohistochemical techniques to verify the attenuation of the dystrophy and the restoration of usual innervation.

anti-NGF mice [2] = assay: Restoration of the cholinergic phenotype in the basal forebrain of anti-NGF mice by NGF (minipump or NGF-secreting fibroblasts, lateral ventricle); assay type: in vivo, mouse; settings: 2 months-old anti-NGF mice; NGF into lateral ventricle
Method: The restoration of the cholinergic phenotype in the basal forebrain was achieved by two different approaches. In a first set of experiments, NGF was delivered using slow releasing minipumps (Alzet, USA) A rubber capillary tube was inserted in the lateral ventricle and then connected by means of an osmotic minipump to a <> of the subcutaneous layer. This pump was filled by NGF (30–100 μg) diluted with Ringer-Locke physiological saline. Experiments were performed in 2 months-old transgenic mice and controls.
In another set of experiments, animals of the same age of previous ones were treated by an implant of fibroblasts genetically modified to secrete NGF. The fibroblasts were injected in the lateral ventricle at a 2×10^5 cells/μl concentration. The injection volume was 1.5 μl/animal. This second method allowed to verify, by ELISA, the constancy of NGF production over 4 weeks after the implantation.

αD11 antibody = assay: Phage ELISA assay; assay type: binding; settings: phages selected against αD11
Method: Phage ELISA assay. Ninety-six well plates were coated with 100 μl of rat anti-pill monoclonal antibody (57D1, gift by P. Delmastro) diluted in coating buffer (1 μg/ml 50 mM carbonate buffer pH 9.6) and incubated overnight at 4° C. Palts were washed in PBST and blocked in 5% milk/PBST for 1 h at 37° C. on a rocking platform. After 1 brief wash, a mixture of cleared phage supernatant (50 μl) and 50 μl of 5% milk/PBST was added and incubated for 1 h at 37° C. The plates were washed and 100 μl of αD11 antibody dilution (1 μg/ml in 5% milk/PBS) were added and left overnight at 4° C. After washing, an alkaline phosphatase conjugated anti-mouse antibody was added and left at 4° C. for 4 hrs. The reaction was developed by adding 200 μl of the substrate solution (10% dietanolamine, 5 mM MgCl2 pH 9.6) for 2 min followed by an incubation at 37° C. for 1 h in 100 μl of developing solution (1 mg/ml NTB in 10% dietanolamine, 5 mM MgCl2, pH 9.6).
Positive phage clones were analyzed by the single strand DNA sequencing. The positive phage clones were sequenced and re-tested using dot blot experiments towards the αD11 antibody. At least twenty were analyzed.

anti-NGF mice [3] = assay: Number of ChAT-positive neurons in the basal forebrain (immunohistochemistry, stereology); assay type: in vivo, mouse
Method: (§1) Peptide 18 treatment. Prior to the injections, phages carrying the peptide 18 or a peptide raised against NT-3 (negative control) were amplified by infecting 2.5 ml of an overnight colture of DH5alpha F′ bacteria with 5 ml of phage supernatant in 1 liter of 2TY. After an overnight incubation at 30° C., bacteria were removed by centrifugation at 6000 rpm for 20 min at 4° C. Phage particles were precipitated by adding 1 volume of PEG/NaCl (20% PEG6000, 2.5 M NaCl) to 5 volumes of the supernatant. After mixing, the solution was left stand overnight at 4° C. and spinned at […] for 30 min. The pellet was resuspended in 40 ml of […], kept at 65° C. and then spun for 5 min at 11000 rpm.
One volume of PEG/NaCl was mixed to 5 volumes of the phage containing supernatant and incubated for 2 hrs at 4° C. After spinning at 11000 rpm for 5 min., the pellet was resuspended in PBS, spun again to remove cell debris and filtered through a 0.22 μm sterile filter. The phage suspension was then titred by infecting 100 μl of an overnight colture of DH5α F′, mixed with LB top agar and plated on LB plates. Phages carrying the carrying the peptide 18 or a peptide binder of anti-NT-3 (10^9–10^12 pfu/μl) were injected in both lateral ventricles. Phages were injected at postnatal day 53 (P53) and mice were killed 1 week after the injection. For the injection, mice were anaesthetised with 2,2,2-Tribromoethanol (0.2 ml/10 g body weight of a 1.2% solution). One μl of phage suspension was injected using a 17 gauge needle connected to a 10 μl Hamilton by a polyethylene cannula, 1 mm lateral and 1 mm anterior to Bregma. After the injection, animals were treated with ampicillin (1 mg/kg) every day, in order to prevent any bacterial infection. Experiment were performed three times for a total number of animals equal to 14 for each group of treatment.
L-thyroxine treatment. […]
Quantitative stereology. The volume of basal forebrain and the number of BFCNs was evaluated in 9 anti-NGF transgenic mice and 8 transgenic controls by using a stereological approach (Ruberti, 2000).

anti-NGF mice [4] = assay: AT8 (phosphorylated tau) immunohistochemistry in entorhinal cortex; assay type: in vivo, mouse
Method: as §1
One volume of PEG/NaCl was mixed to 5 volumes of the phage containing supernatant and incubated for 2 hrs at 4° C. After spinning at 11000 rpm for 5 min., the pellet was resuspended in PBS, spun again to remove cell debris and filtered through a 0.22 μm sterile filter. The phage suspension was then titred by infecting 100 μl of an overnight colture of DH5α F′, mixed with LB top agar and plated on LB plates. Phages carrying the carrying the peptide 18 or a peptide binder of anti-NT-3 (10^9–10^12 pfu/μl) were injected in both lateral ventricles. Phages were injected at postnatal day 53 (P53) and mice were killed 1 week after the injection. […]

free NGF = assay: Determination of free NGF by ELISA; assay type: in vivo, mouse
Method: Determination of free NGF. The levels of free NGF (i.e. NGF not bound to the transgenic antibodies) in the different tissues was determined by an ELISA assay. This assay exploits the property of αD11 antibody to recognize NGF in a two-site ELISA format 16. Samples of blood serum or of tissue extracts (derived as in Molnar et al., 1998) were added to wells coated with mAb αD11 (coating concentration of […]). After incubation for 2 hours at r.t. and extensive washing with PBS-0.05% Tween 20, followed by PBS, free NGF, not engaged with transgenic αD11, was detected using an affinity-purified rabbit anti-NGF polyclonal antiserum.

[5] = system: visual cortex slices of anti-NGF mice; assay: Long Term Potentiation (LTP) in visual cortex slices, electrophysiological recordings; design: species or system mouse; settings: 12 µg/animal/day for 4 weeks
Method: Visual cortex slices preparation and electrophysiological recordings. Postsynaptic field potentials were recorded in […] in vitro slices containing visual cortex, following previously described methods (Kirkwood and Bear, 1994). Anti-NGF and transgenic control mice were deeply anesthetized with urethane and then decapitated. The brain was rapidly removed and visual cortex slices (400 μm) prepared and superfused in a submerged recording chamber at 33° C. with gassed artificial cerebrospinal fluid (aCSF) at a rate of 4 ml/min.
The amplitude of the maximum negative field potential in layer 2/3 was used as a measure of the evoked population excitatory current. LTP was induced by 3 trains of high frequency stimulation (HFS, 100 Hz, 1 s). Experiments were performed at different postnatal ages 6 months, when the functional maturation of the visual cortex is completed. Acetylcholine dependence of LTP was investigated by locally delivering through the recording pipette. […] The magnitude of both LTP was measured starting 30 min after the end of the corresponding conditioning protocol. Data for each experimental group were pooled and expressed as percentage change from control baseline, PCCB±S.E.M. Statistical comparison was done by applying a t-test and Mann-Whitney Rank Sum Test between baseline and LTP mean values.

[6] = phage injected intraventricularly
[7] = intraperitoneal, 10 μg daily from P45 to P62
[8] = intraperitoneal, daily from P45 to P62

## NGF: Nerve Growth Factor, neurotrophin, given as pellet, adenoviral cDNA vector, minipump infusion or via NGF-secreting fibroblasts
[1]
  muscle fibre morphology and cholinergic and peptidergic innervation: re-assumed an usual appearance
anti-NGF mice [2]
  ChAT expression in nuclei of the basal forebrain and behaviour (cholinergic phenotype): phenotype reversibility to be observed

## RGSRHDL [peptide 18]
αD11 antibody
  binding activity of phage clone to αD11: stronger binding activity
anti-NGF mice [3]; phage injected in both lateral ventricles at P53, killed 1 week later
  number of ChAT positive neurons in the basal forebrain: restored
anti-NGF mice [4]; phage injected intraventricularly at P53
  AT8 labeling (hyperphosphorylated tau) in the somatic compartment of neurons of the entorhinal cortex: not paralleled by the disappearance of AT8 labeling; also recorded: decreases the expression in the soma
Free NGF; [6]
  free NGF in blood serum and submandibular gland: equal to animals treated with the non related peptide binder of anti-NT-3
  free NGF in brain: increase only at the level basal forebrain

## N[C@@H](Cc1cc(I)c(Oc2cc(I)c(O)c(I)c2)c(I)c1)C(=O)O [LT4, L-thyroxine, reference compound]
anti-NGF mice [3]; [7]
  number of ChAT-positive neurons in the basal forebrain, compared with transgenic control: equal to that observed in transgenic control animals
  number of ChAT-positive neurons, increase over not-treated or vehicle-treated anti-NGF mice: 40%
anti-NGF mice [4]; [8]
  AT8 labeling in the somatic compartment of neurons of the entorhinal cortex: disappearance of AT8 labeling
Free NGF; [8]
  free NGF in brain, blood serum and submandibular gland, compared with transgenic control: reached almost the levels detectable in transgenic control animals
  free NGF in brain, blood serum and submandibular gland, compared with vehicle: higher than that detected in animals treated with vehicle
[5]
  rescue of synaptic plasticity (LTP): only a mild rescue
